Results: PubChem BioAssay AID1996
Converted amounts (≈) assume the structure as drawn.

Details: buffer; pH 7.4; 200.0 µM
`CC(=O)N1CCc2ccc(S(=O)(=O)Nc3ccccc3Cl)cc21` gave a solubility kinetic of 39.2 µg/mL (≈ 112 µM). Molecule `O=C(CNCc1ccco1)Nc1cc(S(=O)(=O)N2CCOCC2)ccc1N1CCOCC1` has a solubility kinetic of over 69.7 µg/mL. Molecule `Cc1nc(-c2ccc(S(=O)(=O)N3CCOCC3)cc2)cs1` has a solubility kinetic of 20.7 µg/mL (≈ 63.8 µM). Molecule `O=C(O)C1CC=CCC1C(=O)Nc1cccc([N+](=O)[O-])c1` (stereo unspecified) has a solubility kinetic of over 43.5 µg/mL. With `O=C(COC(=O)CCSc1ccccc1)Nc1ccccc1Br` the solubility kinetic was 18.2 µg/mL (≈ 46.2 µM). Molecule `CC(C)CNC(=O)C(=O)Nc1cc2c3c(c1)C(C)C(=O)N3CCC2` (stereo unspecified) has a solubility kinetic of 42.7 µg/mL (≈ 130 µM). With `CN1CCCNc2nc3ccccc3nc21` the solubility kinetic was over 32.1 µg/mL. `O=C(Cn1ccccc1=S)c1ccc(Cl)c(Cl)c1` gave a solubility kinetic of 6.3 µg/mL (≈ 21.1 µM). `CN1CCN(C(=O)OC2c3nccnc3C(=O)N2c2ccc(Cl)cn2)CC1` (stereo unspecified) showed a solubility kinetic of over 58.3 µg/mL. `CSC1=NCCN1C(=O)Cc1ccc(-c2ccccc2)cc1` showed a solubility kinetic of 4.1 µg/mL (≈ 13.2 µM). Work on `Cc1c(C(=O)Nc2ccc3c(c2)OCO3)oc2ccccc12` yielded a solubility kinetic of 2.9 µg/mL (≈ 9.82 µM). Molecule `COc1ccc2oc(=N)c(C(=O)Nc3cccc(C)c3C)cc2c1` has a solubility kinetic of under 0.3 µg/mL. Molecule `CCOC(=O)c1cc(C#N)c(SCC(=O)OC)[nH]c1=O` has a solubility kinetic of over 44.4 µg/mL. With `O=S(=O)(Oc1ccccc1N1CCCCC1)c1ccccc1` the solubility kinetic was 2.3 µg/mL (≈ 7.25 µM). `O=C(O)c1cc([N+](=O)[O-])ccc1C(=O)Nc1cccc([N+](=O)[O-])c1` gave a solubility kinetic of over 49.7 µg/mL. `CCCC(C)NC(=O)Cc1ccccc1` (stereo unspecified) showed a solubility kinetic of 30 µg/mL (≈ 146 µM). Work on `CC(=O)N1CC(=O)Nc2ccc(C)cc2C1c1ccccc1` (stereo unspecified) yielded a solubility kinetic of over 44.2 µg/mL. Work on `O=C(O)CC1(CC(=O)NCc2ccc(C(F)(F)F)cc2)CCCCC1` yielded a solubility kinetic of over 53.6 µg/mL. `CCN1CCC(NCC2CCCCC2)CC1` gave a solubility kinetic of 23.2 µg/mL (≈ 103 µM). In the case of `Cc1ccc(NC(=S)NC(=O)C2CC2)cc1Cl`, the solubility kinetic is reported as 2.9 µg/mL (≈ 10.8 µM). With `O=C(c1ccccc1)c1ccc(C(=O)N2CCN(c3ccc(O)cc3)CC2)cc1` the solubility kinetic was 47.4 µg/mL (≈ 123 µM). With `C=CCN1C(=O)C2(OCCCO2)c2cc(Cl)ccc21` the solubility kinetic was 33.7 µg/mL (≈ 120 µM). With `CC(CN1C(C)CCCC1C)OC(=O)c1cccc(F)c1.Cl` (stereo unspecified) the solubility kinetic was over 49.5 µg/mL. Molecule `O=C(O)CC(c1ccccc1F)N1Cc2ccccc2C1=O` (stereo unspecified) has a solubility kinetic of 43.7 µg/mL (≈ 146 µM). `Cl.NCCNc1ccc([N+](=O)[O-])cc1` showed a solubility kinetic of over 32.6 µg/mL. For `Cc1cccc(OCCCn2c(CO)nc3ccccc32)c1`, the solubility kinetic was over 44.5 µg/mL. With `CC(C(=O)Nc1ccc(C#N)cc1)N1CCN(C(=O)C2CC2)CC1` (stereo unspecified) the solubility kinetic was over 49 µg/mL. Work on `COc1cccc2c1OCC(C(=O)Nc1nccs1)=C2` yielded a solubility kinetic of 18.2 µg/mL (≈ 63.1 µM). For `Cc1cnc(NC(=O)C2CC(=O)N(c3ccc4c(c3)OCCO4)C2)s1` (stereo unspecified), the solubility kinetic was 20.2 µg/mL (≈ 56.2 µM). `Cc1ccc(S(=O)(=O)Nc2ccccc2C(=O)N2CCOCC2)cc1` gave a solubility kinetic of over 54.1 µg/mL. For `COc1ccccc1C(=O)NCC(=O)N1CC=C(c2ccccc2)CC1`, the solubility kinetic was 4.5 µg/mL (≈ 12.8 µM). With `CC(=O)Nc1ccc(OCc2ccc3c(c2)OCO3)cc1` the solubility kinetic was 15.4 µg/mL (≈ 54 µM). Molecule `O=S(=O)(c1ccc(F)c(F)c1)N1CCC2(CC1)OCCO2` has a solubility kinetic of over 47.9 µg/mL. `Cc1nnc2c(N3CCN(CCO)CC3)nc3ccccc3n12` gave a solubility kinetic of over 46.9 µg/mL. With `CCc1ccccc1NC(=O)C1COc2ccccc2O1` (stereo unspecified) the solubility kinetic was 33.4 µg/mL (≈ 118 µM). With `O=C(OCC(=O)N1CCOCC1)c1ccc2ccccc2c1` the solubility kinetic was over 44.9 µg/mL. Molecule `Cc1ccc(F)cc1NC(=O)N1c2ccccc2NC(=O)CC1C` (stereo unspecified) has a solubility kinetic of 42.7 µg/mL (≈ 130 µM). Molecule `CCOc1ccc(S(=O)(=O)Nc2cnc3ccccc3c2)cc1` has a solubility kinetic of over 49.3 µg/mL. With `CC(C(=O)Nc1ccccn1)c1ccccc1` (stereo unspecified) the solubility kinetic was over 33.9 µg/mL. In the case of `CN1CC(C(=O)c2ccc(Cl)cc2)C(c2ccccc2F)C1` (stereo unspecified), the solubility kinetic is reported as over 47.7 µg/mL. In the case of `COc1ccc(C(=O)Nc2ccc(C(=O)c3ccccc3)cc2)cc1`, the solubility kinetic is reported as under 0.7 µg/mL. `Cc1ccc(C)c(C(=O)COC(=O)C(C)N2C(=O)C3C4CCC(C4)C3C2=O)c1` (stereo unspecified) gave a solubility kinetic of 42 µg/mL (≈ 110 µM). Work on `COC(=O)CC(c1ccccc1F)N1Cc2ccccc2C1=O` (stereo unspecified) yielded a solubility kinetic of over 47 µg/mL. Work on `CN(Cc1cccs1)C(=O)COC(=O)CNC(N)=O` yielded a solubility kinetic of over 42.8 µg/mL. In the case of `Cc1ccccc1-c1noc(CCC(=O)NCc2ccco2)n1`, the solubility kinetic is reported as 42.1 µg/mL (≈ 135 µM). In the case of `CCCCOc1ccc(Cn2c(=O)oc3ccccc32)cc1`, the solubility kinetic is reported as under 0.6 µg/mL. `O=C(COC(=O)c1cc[n+]([O-])cc1)Nc1ccc(Cl)c(C(F)(F)F)c1` gave a solubility kinetic of over 56.2 µg/mL. `Cc1cccc(OCc2ccc(C(=O)Nc3cc(C)on3)o2)c1` gave a solubility kinetic of under 0.3 µg/mL. `Nc1ccc(Sc2ccccc2Cl)nc1` showed a solubility kinetic of over 35.5 µg/mL. With `Cc1ccc(Cl)cc1NC(=S)N1CCCCCC1` the solubility kinetic was 37.8 µg/mL (≈ 134 µM). With `Cc1ccc(O)c(NC(=O)C2CC(c3cccc(Br)c3)=NO2)c1` (stereo unspecified) the solubility kinetic was under 0.4 µg/mL. For `CCOCC(=O)OCC(=O)NC12CC3CC(CC(C3)C1)C2`, the solubility kinetic was over 44.3 µg/mL. In the case of `O=C(NN1CCOCC1)c1cc(Cl)ccc1Cl`, the solubility kinetic is reported as over 41.3 µg/mL. Work on `COc1ccccc1NC(=S)NC(NC(C)=O)C(Cl)(Cl)Cl` (stereo unspecified) yielded a solubility kinetic of 19 µg/mL (≈ 51.3 µM). `O=C(O)c1ccc2c(c1)C(=O)N(c1ccccc1-c1ccccc1)C2=O` gave a solubility kinetic of over 51.5 µg/mL. `CC(C)(C)OC(=O)N1Cc2ccccc2C[C@H]1C(=O)NC1CCCC1` gave a solubility kinetic of over 51.7 µg/mL. With `O=C(Nc1nccs1)OCc1ccccc1` the solubility kinetic was 12.8 µg/mL (≈ 54.6 µM). `CCC(C)c1ccccc1NS(=O)(=O)c1cnn(CC)c1` (stereo unspecified) showed a solubility kinetic of over 46.1 µg/mL. Work on `COc1ccc2c(C)nc(Nc3nc(-c4ccccc4)cc(=O)[nH]3)nc2c1` yielded a solubility kinetic of under 0.2 µg/mL. `CC(=O)C1=C(O)C(=O)N(c2ccc(O)cc2)C1c1ccccc1` (stereo unspecified) showed a solubility kinetic of over 46.4 µg/mL. Molecule `O=C(COC(=O)c1c(F)cccc1F)c1ccc[nH]1` has a solubility kinetic of 39.3 µg/mL (≈ 148 µM). `CCc1ccc(NC(=O)C2(C)Cc3ccccc3C(=O)O2)cc1` (stereo unspecified) gave a solubility kinetic of over 46.4 µg/mL. Work on `Cc1ccc(S(=O)(=O)c2nc(-c3ccccc3Cl)oc2N(C)C2CCN(C)CC2)cc1` yielded a solubility kinetic of over 69 µg/mL. For `O=c1c2ccccc2nc2n1CCCN2`, the solubility kinetic was over 30.2 µg/mL. With `COc1ccc(NC(=O)c2cc(C)nc3ccccc23)c(OC)c1` the solubility kinetic was over 48.4 µg/mL. `Fc1ccccc1NC(=S)NCc1ccc(Cl)cc1` gave a solubility kinetic of 11.2 µg/mL (≈ 38 µM). For `CC(=O)c1ccc(OCC(=O)NCc2ccc(F)cc2)cc1`, the solubility kinetic was over 45.2 µg/mL. In the case of `COc1ccc(-c2csc3ncnc(Cl)c23)cc1`, the solubility kinetic is reported as 0.6 µg/mL (≈ 2.17 µM). `COc1cc(C2Nc3cccc4cccc(c34)N2)ccc1O` showed a solubility kinetic of 35.5 µg/mL (≈ 121 µM). For `CC1CC(=O)Nc2ccccc2N1C(=O)COc1ccc2ccccc2c1` (stereo unspecified), the solubility kinetic was 8.8 µg/mL (≈ 24.4 µM). Work on `CCNC(=O)CC1C(=O)N(c2cccc(C)c2)C(=O)N1CCC(C)C` (stereo unspecified) yielded a solubility kinetic of over 51.8 µg/mL. `Cc1cc(C(=O)CN2C(=O)C(=O)N(CCC3=CCCCC3)C2=O)c(C)n1C` showed a solubility kinetic of 11.5 µg/mL (≈ 31 µM). For `COc1cccc(C(=O)NCc2ccc3[nH]c(C)cc3c2)c1`, the solubility kinetic was 15.8 µg/mL (≈ 53.7 µM). For `COC(=O)c1cccc(NC(=O)CCc2c(C)noc2C)c1`, the solubility kinetic was over 45.3 µg/mL. `COc1ccc(-c2noc(CCC(=O)NCC3CCCO3)n2)cc1` (stereo unspecified) gave a solubility kinetic of over 49.7 µg/mL. Work on `Cc1nccc(-c2cc(-c3ccc(Cl)cc3Cl)no2)n1` yielded a solubility kinetic of under 0.2 µg/mL. With `O=C(Cc1cccs1)Nc1ccc(F)cc1F` the solubility kinetic was 30 µg/mL (≈ 118 µM). Molecule `O=C(NCCc1csc(-c2ccccc2)n1)c1ccccc1F` has a solubility kinetic of 40.2 µg/mL (≈ 123 µM). Molecule `Cc1ccnc(NC(=O)Cc2ccc(F)cc2)n1` has a solubility kinetic of over 36.8 µg/mL. With `CCc1ccc(Nc2nc(C)cc(C)n2)cc1.Cl` the solubility kinetic was 18.4 µg/mL. `Cc1ccc2oc(C(=O)N(C)Cc3ccon3)c(C)c2c1` gave a solubility kinetic of 39.2 µg/mL (≈ 138 µM). `Cc1cc(C(=O)Nc2ccccc2Cc2ccccc2)no1` gave a solubility kinetic of 2.8 µg/mL (≈ 9.58 µM). Work on `O=C(Nc1ccccc1C(F)(F)F)c1ccsc1` yielded a solubility kinetic of over 40.7 µg/mL. For `Cc1cccc(C(C)C)c1NC(=O)c1c(-c2ccccc2)noc1C`, the solubility kinetic was 0.6 µg/mL (≈ 1.79 µM). With `O=C(O)c1cccc(Nc2ccc([N+](=O)[O-])c3nonc23)c1` the solubility kinetic was over 45 µg/mL. In the case of `O=C(CN1C(=O)NC2(CCc3ccccc32)C1=O)NCc1cccc(C(F)(F)F)c1` (stereo unspecified), the solubility kinetic is reported as 55.2 µg/mL (≈ 132 µM).
